As a reminder, the MIC is the lowest concentration that inhibits growth of the organism. As usually defined, the inhibition is the share of the control response that was lost under treatment. Low readings indicate a weak effect, high ones a strong effect. One may read the IC50 as the concentration needed to halve the response being measured. A high value points to lower potency.

Twelve molecules from ChEMBL document CHEMBL1134115, “Antimycobacterial activity of 9-sulfonylated/sulfenylated-6-mercaptopurine derivatives” (Bioorg Med Chem Lett, 2001) can be followed below.

In brackets after ≈: the same amount, converted by molar mass.

In assay [1] the test system is Mycobacterium tuberculosis. The assay is described as follows: Antimycobacterial activity against Mycobacterium tuberculosis Erdman using Microplate Alamar Blue Assay (MABA) assay. Format: functional. Background: Resazurin is reduced to fluorescent resorufin, in cell work by metabolically active cells.
A short description of assay [2]: Selectivity index (IC50/MIC) was determined. The class given is functional.
The test system of assay [3] is Mycobacterium avium. The assay is described as follows: Percent inhibition against Mycobacterium avium at the dose of 12.5 uM using Microplate Alamar Blue Assay (MABA) assay. Format: functional.
Assay [4] concerns Mycobacterium tuberculosis. The assay is described as follows: Antimycobacterial activity against Mycobacterium tuberculosis wild type (WT, H37Rv). Format: functional.
The subject of assay [5] is Vero. The assay can be described thus: Cytotoxicity determined in VERO cells at concentrations less than or equal to […] or 10 times the MIC against Mycobacterium tuberculosis H37Rv. The class given is functional, cell-based. Conditions: Chlorocebus sabaeus.
For assay [6], the system named is Mycobacterium tuberculosis. The assay is described as follows: Antimycobacterial activity against Mycobacterium tuberculosis H37Rv using Microplate Alamar Blue Assay (MABA) assay. The class given is functional.

As to `O=[N+]([O-])c1ccc(Sn2cnc3c(S)ncnc32)cc1`, the MIC in assay [1] and in assay [4] was 0.78 µg/mL (≈ 2.55 µM) each time. In assay [2], this molecule returned a Selectivity index of 58 SI. Besides, the inhibition at 12.5 µM in assay [3] worked out at 79%. Further, 45 µg/mL (≈ 147 µM) corresponded to half-maximal inhibition in assay [5] (IC50).
`CC(=O)Nc1ccc(S(=O)(=O)n2cnc3c(S)ncnc32)cc1` returned a Selectivity index in assay [2] greater than 256 SI. In assay [3], testing at 12.5 µM gave an inhibition of 57%. Also, the MIC in assay [6] and in assay [4] was 0.78 µg/mL (≈ 2.23 µM) throughout. The IC50 in assay [5] was greater than 200 µg/mL.
In the case of `CO[C@H]1/C=C/O[C@@]2(C)Oc3c(C)c(O)c4c(O)c(c(/C=N/N5CCN(C)CC5)c(O)c4c3C2=O)NC(=O)/C(C)=C\C=C\[C@H](C)[C@H](O)[C@@H](C)[C@@H](O)[C@@H](C)[C@H](OC(C)=O)[C@@H]1C` [RIFAMPIN], the Selectivity index in assay [2] is greater than 8000 SI. Besides, the MIC in assay [6] and in assay [4] was 0.125 µg/mL (≈ 0.152 µM) in each case. For the same molecule, in assay [5], the IC50 was greater than 1000 µg/mL.
`O=[N+]([O-])c1ccccc1Sn1cnc2c(S)ncnc21` came in with a Selectivity index in assay [2] of 6.4 SI. For the same molecule, in assay [3], the inhibition at 12.5 µM stood at 75%. The minimum inhibitory concentration (MIC) in assay [6] stood at 0.78 µg/mL (≈ 2.55 µM). Further, inhibition in assay [5] was half-maximal at 5 µg/mL (≈ 16.4 µM) (IC50).
The like results for `O=[N+]([O-])c1ccccc1S(=O)(=O)n1cnc2c(S)ncnc21` were, in that order, 40 SI, 50%, 1.56 µg/mL (≈ 4.62 µM) and 64 µg/mL (≈ 190 µM).
Take `O=S(=O)(c1ccc(Br)cc1)n1cnc2c(S)ncnc21`: the Selectivity index in assay [2] is 2.6 SI. The inhibition at 12.5 µM in assay [3] amounted to 81%. This molecule gave an MIC in assay [6] of 0.78 µg/mL (≈ 2.1 µM). Moreover, the IC50 in assay [5] is 2 µg/mL (≈ 5.39 µM).
The like results for `O=S(=O)(c1ccc(F)cc1)n1cnc2c(S)ncnc21` were, in that order, 0.3 SI, 70%, 3.39 µg/mL (≈ 10.9 µM) and 1 µg/mL (≈ 3.22 µM).
For the molecule `CN(C)S(=O)(=O)n1cnc2c(=S)[nH]cnc21`, the Selectivity index in assay [2] is greater than 513 SI. In addition, in assay [3], at 12.5 µM the inhibition was 40%. Moreover, the MIC in assay [6] and in assay [4] was 0.39 µg/mL (≈ 1.5 µM) in each case. In assay [5], this molecule came in with an IC50 greater than 200 µg/mL.
With `Nc1cccc(S(=O)(=O)n2cnc3c(S)ncnc32)c1`, the Selectivity index in assay [2] was determined as 150 SI. The same molecule yielded an inhibition at 12.5 µM in assay [3] of 68%. In addition, the MIC in assay [6] and in assay [4] was 3.13 µg/mL (≈ 10.2 µM) each time. The same molecule showed an IC50 in assay [5] of 468 µg/mL (≈ 1520 µM).
As to `O=S(=O)(c1ccc(Cl)cc1)n1cnc2c(S)ncnc21`, the Selectivity index in assay [2] turned out to be 0.32 SI. In addition, at 12.5 µM the inhibition in assay [3] was 60%. In addition, the MIC in assay [6] and in assay [4] was 3.13 µg/mL (≈ 9.58 µM) throughout. This molecule had an IC50 in assay [5] of 1 µg/mL (≈ 3.06 µM).
`Nc1ccc(S(=O)(=O)n2cnc3c(S)ncnc32)cc1` yielded a Selectivity index in assay [2] greater than 128 SI. Moreover, in assay [3], 12.5 µM produced 63% inhibition. Moreover, the MIC in assay [6] worked out at 0.78 µg/mL (≈ 2.54 µM). Besides, the IC50 in assay [5] is greater than 100 µg/mL.
For `Cc1ccc(S(=O)(=O)n2cnc3c(S)ncnc32)cc1` the same measures were 2.5 SI, 73%, 1.6 µg/mL (≈ 5.22 µM) and 4 µg/mL (≈ 13.1 µM).
